Series [1] deals with Dog. The series is described as follows: Summary of clinical observations in applicant-sponsored dog studies. In kind it is in vivo. The conditions noted are these: Dog 1.0 mg/kg (= 33 mg HED); preliminary data, ongoing study. From the text: Based on preliminary data from another ongoing study in dogs, it has been observed that the site of blood sampling in dogs may impact the measured plasma exposure. Samples from the jugular vein may result in higher apparent exposure levels than samples from the cephalic vein, which might be due to the local transmucosal route of administration (also reported in the scientific literature (Illum, 2003; Sohlberg, 2013)). Therefore, dose escalation criteria for the Phase 1 Single Ascending Dose study are based on assessment of clinical criteria, safety factors and exposure. A maximum dose of 14 mg has been designated.

Series [2] concerns the target hERG potassium channel current (IKr) (Homo sapiens, UniProt Q12809). Nature of the series: cell-based. From the text:
This assay is employed as a screen to assess potential risks for QT interval prolongation.

Data on two compounds can be found in US11518742B2 (priority 2020, dated 2022).

SMILES strings stand for the structures.

hERG potassium channel current (IKr), sequence (Q12809 whole entry): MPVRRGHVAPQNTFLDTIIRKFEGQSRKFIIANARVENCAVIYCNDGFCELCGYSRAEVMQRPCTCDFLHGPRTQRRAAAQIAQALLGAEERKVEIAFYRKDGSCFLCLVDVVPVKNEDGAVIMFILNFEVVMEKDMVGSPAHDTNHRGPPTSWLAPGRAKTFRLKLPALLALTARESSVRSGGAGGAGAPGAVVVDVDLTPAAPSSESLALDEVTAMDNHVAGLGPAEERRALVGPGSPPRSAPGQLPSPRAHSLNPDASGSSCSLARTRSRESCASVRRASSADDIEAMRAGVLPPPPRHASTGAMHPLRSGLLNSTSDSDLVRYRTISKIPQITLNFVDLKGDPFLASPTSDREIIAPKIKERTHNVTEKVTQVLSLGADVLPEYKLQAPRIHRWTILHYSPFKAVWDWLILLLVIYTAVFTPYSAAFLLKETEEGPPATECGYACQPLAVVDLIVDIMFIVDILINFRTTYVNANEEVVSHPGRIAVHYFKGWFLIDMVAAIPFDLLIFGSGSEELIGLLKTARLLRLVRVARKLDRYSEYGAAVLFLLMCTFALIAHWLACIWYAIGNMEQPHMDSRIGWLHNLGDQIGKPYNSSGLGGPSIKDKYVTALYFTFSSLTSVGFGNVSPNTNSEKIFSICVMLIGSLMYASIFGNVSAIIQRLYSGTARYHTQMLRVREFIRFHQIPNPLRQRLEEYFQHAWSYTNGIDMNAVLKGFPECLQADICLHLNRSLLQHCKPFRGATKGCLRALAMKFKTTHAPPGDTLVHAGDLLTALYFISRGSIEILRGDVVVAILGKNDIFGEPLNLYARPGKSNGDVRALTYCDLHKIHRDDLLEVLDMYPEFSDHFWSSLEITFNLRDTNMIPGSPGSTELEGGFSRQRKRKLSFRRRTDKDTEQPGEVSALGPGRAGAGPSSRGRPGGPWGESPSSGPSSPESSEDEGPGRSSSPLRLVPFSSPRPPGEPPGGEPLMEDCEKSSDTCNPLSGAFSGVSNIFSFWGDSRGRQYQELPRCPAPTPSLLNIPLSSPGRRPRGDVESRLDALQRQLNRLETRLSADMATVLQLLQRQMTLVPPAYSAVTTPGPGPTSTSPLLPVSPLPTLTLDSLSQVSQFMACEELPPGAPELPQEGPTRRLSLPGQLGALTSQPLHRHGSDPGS

For the compound `COc1ccc2[nH]cc(CCN(C)C)c2c1` [BPL-5MEO, 5-methoxy-N,N-dimethyltryptamine], the Clinical observations entry in series [1] is “Slighttremor”.
By IC50 is commonly meant the concentration at which inhibition is half-maximal. A word on the inhibition: it is the drop in the measured response relative to a control, in per cent. A low value points to a response near the control. In series [2], `COc1ccc2[nH]cc(CCN(C)C)c2c1` [5MeODMT, 5-methoxy-N,N-dimethyltryptamine] yielded an IC50 of 8.69 µM. In series [2] (human), this compound came in with an inhibition at 1 µM of 5.03 ± 1.95%, an inhibition at 3 µM of 23.8 ± 6.1%, an inhibition at 10 µM of 52.7 ± 2.61% and an inhibition at 35 µM of 82.2 ± 1.91%.
